Measurements reported in patent US12122787B2, “Fused pyridone compound, and preparation method therefor and use thereof” (SHANGHAI JEMINCARE PHARMACEUTICALS CO., LTD, priority 2019, dated 2024).
pIC50: −log10 of the molar value.

test system: MIA PaCa2 cells expressing KRAS-G12C; assay: Growth inhibition of tumor cell line expressing KRAS-G12C (Cell Titer Glo), MIA PaCa2; type: cell-based; conditions: MIA-Paca2, 72 hours
Description: (§1) The ability of the compounds of the present disclosure to inhibit the growth of cells expressing KRAS-G12C was evaluated by measuring the cell viability and calculating the GI50 values.
(§2) The tumor cell line NCI-H358 (ATCC catalogue number CRL-5807) expressing KRAS-G12C was cultured in RPMI medium supplemented with 10% fetal bovine serum and penicillin/streptomycin, and the tumor cell line MIA PaCa2 (ATCC CRL-1420) expressing KRAS-G12C was cultured in DMEM medium supplemented with 10% fetal bovine serum, 2.5% horse serum, and penicillin/streptomycin.
(§3) Cells NCI-H358 and MIA-Paca2 were inoculated into black transparent bottom 384-well plate (PerkinElmer catalogue number 6007460) with cell density of 1000 and 800 respectively, and the cells were allowed to adhere to the wall overnight (8-12 hours). After the cells adhered to the wall, the experimental group was added with the compound of the present disclosure diluted 5 times the concentration of the working solution (final concentration containing 0.1% dimethyl sulfoxide, i.e. DMSO); the control group was added with the same dilution as the experimental group (final concentration containing 0.1% DMSO). After 72 hours, Cell Titer Glo reagent (Promega catalogue number G7572) was used to detect ATP content according to the instruction method to determine the amount of cell proliferation. The brief operation steps were as follows: the cell plate was taken out and kept at normal temperature for equilibrium for 30 minutes; Cell Titer Glo reagent with the same volume as the culture was added; the culture plate was placed on a shaker for shaking and cracking for 2 minutes; the culture plate was left to stand at room temperature for 10 minutes; then the light signal value was read by microplate reader EnVision (PerkinElmer).
(§4) Data from all experimental groups were used to calculate the respective percent inhibition using the DMSO group, and the GI50 was calculated using the data processing software GraphPad to analyze the inhibition rates produced by the 9 compound dose concentrations diluted at ⅓-fold ratio.

SMILES	GI50
C=CC(=O)N1C[C@@H]2C(=O)N(CCN(C)C)c3c(c4cc(Cl)c(-c5c(O)cccc5F)c(F)c4n(-c4c(C)ccnc4C(C)C)c3=O)N2C[C@H]1C (single isomer, unassigned) [Compound 26C]	0.001 µM

test system: phosphorylated ERK (Thr202/Tyr204) in NCI-H358 cells expressing mutant RAS(G12C); assay: Inhibition of RAS-mediated signal transduction: phosphorylated ERK ELISA in NCI-H358 cells; type: cell-based; conditions: Homo sapiens, NCI-H358, 2 h, NCI-H358 cells, 2 hours of treatment, pERK normalized by Janus Green B; read-out: p-ERK IC50 (NCI H358)
Description: The cells were treated with or without the compound of the present disclosure (dimethyl sulfoxide, DMSO), and the final concentration of DMSO was guaranteed to be 0.5%. After 2 hours of treatment, the medium was removed and 4% paraformaldehyde (Beyotime catalog number E672002-0100) was added and left to stand for 20 minutes. Cells were washed with PBS after fixation and incubated with precooled methanol for 10 min to permeabilize the cell membrane.
The level of phosphorylated ERK was detected using an enzyme linked immunosorbent assay (ELISA) method. […] The plates were washed 5 times with PBS containing 0.05% Tween 20. […] The reaction was stopped by adding 1 mol/L H2SO4, and the OD value was read at 450 nm by EnVision (PerkinElmer).
The total number of cells per well was detected by Janus Green B staining method. After detecting the level of phosphorylated ERK, the 96-well plate was washed with PBS until colorless, and 0.1% Janus Green B (Abcam catalogue number ab111622) was added to incubate for 10 minutes. After the 96-well plate was washed with double distilled water, 0.1 mol/L HCl was added, then the mixture was shaked and incubated for 10 minutes. The OD value was read at 595 nm by EnVision (PerkinElmer).
The signal of pERK (Thr202/Tyr204) was normalized by the signal value of Janus Green B, and the inhibition percentage after drug treatment relative to DMSO reference was calculated. The percentage values were fitted by a four-parameter dose-response curve and generated IC50 values.

SMILES	pIC50
C=CC(=O)N1C[C@@H]2C(=O)N(C)c3c(c4cc(F)c(-c5ccccc5O)c(F)c4n(-c4c(C)ccnc4C(C)C)c3=O)N2C[C@H]1C [Compound 46A]	5.69
C=CC(=O)N1C[C@@H]2CN(CCCN(C)C)c3c(c4cc(F)c(-c5c(O)cccc5F)c(F)c4n(-c4c(C)ccnc4C(C)C)c3=O)N2C[C@H]1C [Compound 34A]	6.30
C=CC(=O)N1C[C@@H]2C(=O)N(C)c3c(c4cc(F)c(-c5ccccc5F)c(F)c4n(-c4c(C)ccnc4C(C)C)c3=O)N2C[C@H]1C [Compound 31A]	5.67
C=CC(=O)N1C[C@@H]2C(=O)N(C3CN(C)C3)c3c(c4cc(F)c(-c5c(F)cccc5OC)c(F)c4n(-c4c(C)ccnc4C(C)C)c3=O)N2C[C@H]1C [Compound 43]	5.72
C=CC(=O)N1C[C@@H]2COc3c(c4cc(Cl)c(-c5c(O)cccc5F)nc4n(C)c3=O)N2C[C@H]1C [Compound 9]	5.71
C=CC(=O)N1CCN2c3c(c(=O)n(-c4ccccc4C(C)C)c4nc(-c5c(O)cccc5F)c(F)cc34)OC[C@H]2C1 [Compound 12A]	6.22
C=CC(=O)N1C[C@]2(CO)C(=O)N(C)c3c(c4cc(F)c(-c5c(O)cccc5F)nc4n(-c4c(C)ccnc4C(C)C)c3=O)N2C[C@H]1C [Compound 51A]	5.89
C=CC(=O)N1C[C@@H]2C(=O)N(CCN(C)C)c3c(c4cc(F)c(-c5c(F)cccc5OC)c(F)c4n(-c4c(C)ccnc4C(C)C)c3=O)N2C[C@H]1C [Compound 48A-1]	6.53
C=CC(=O)N1C[C@@H]2COc3c(c4cc(Cl)c(-c5c(O)cccc5F)c(F)c4n(C[C@@H]4CCCN4C)c3=O)N2C[C@H]1C [Compound 45A]	5.81
C=CC(=O)N1C[C@@H]2COc3c(c4cc(F)c(-c5c(F)cccc5OC)nc4n(-c4ccccc4C(C)C)c3=O)N2C[C@H]1C [Compound 1A]	6.76
C=CC(=O)N1C[C@@H]2COc3c(c4cc(F)c(-c5c(C)ccc6[nH]cnc56)nc4n(-c4ccccc4C(C)C)c3=O)N2C[C@H]1C [Compound 17]	6.56
C=CC(=O)N1C[C@@H]2C(=O)N(C)c3c(c4cc(F)c(-c5c(C)ccc6[nH]nc(C7CC7)c56)c(F)c4n(-c4c(C)ccnc4C(C)C)c3=O)N2C[C@H]1C [Compound 47A]	5.81
C=CC(=O)N1C[C@@H]2CNc3c(c4cc(F)c(-c5c(O)cccc5F)nc4n(-c4ccccc4C(C)C)c3=O)N2C[C@H]1C [Compound 11A]	5.95
C=CC(=O)N1C[C@@H]2C(=O)N(CCN(C)C)c3c(c4cc(F)c(-c5c(O)cccc5F)c(F)c4n(-c4c(C)ccnc4C(C)C)c3=O)N2C[C@H]1C [Compound 24A]	5.42
C=CC(=O)N1C[C@@H]2C(=O)N(C)c3c(c4cc(F)c(-c5c(N)cccc5F)c(F)c4n(-c4c(C)ccnc4C(C)C)c3=O)N2C[C@H]1C [Compound 33A-1]	6.14

same assay, conditions: NCI-H358 cells, 2 hours of treatment, pERK normalized by Janus Green B; read-out: p-ERK IC50 (NCI H358)

SMILES	pIC50
C=CC(=O)N1C[C@@H]2C(=O)N(CCN(C)C)c3c(c4cc(Cl)c(-c5c(O)cccc5F)c(F)c4n(-c4c(C)ccnc4C(C)C)c3=O)N2C[C@H]1C (single isomer, unassigned) [Compound 26C]	8.70
C=CC(=O)N1C[C@@H]2COc3c(c4cc(F)c(-c5c(O)cccc5F)c(F)c4n(-c4c(C)ccnc4C(C)C)c3=O)N2C[C@H]1C (atropisomer, axis not shown) [Compound 3A-1]	5.52
C=CC(=O)N1C[C@@H]2C(=O)N(C)c3c(c4cc(F)c(-c5c(O)cccc5F)c(F)c4n(-c4c(C)ccnc4C(C)C)c3=O)N2C[C@H]1C [Compound 21A]	7.89
C=CC(=O)N1C[C@@H]2CN(CC(=O)OC)c3c(c4cc(F)c(-c5c(O)cccc5F)c(F)c4n(-c4c(C)ccnc4C(C)C)c3=O)N2C[C@H]1C [Compound 38B-1]	5.95
C=CC(=O)N1C[C@@H]2COc3c(c4cc(F)c(-c5c(F)cccc5OC)nc4n(-c4c(C)ccnc4C(C)C)c3=O)N2C[C@H]1C (single isomer, unassigned) [Compound 6B]	6.16
C=CC(=O)N1C[C@@H]2C(=O)N(C)c3c(c4cc(Cl)c(-c5c(O)cccc5F)c(F)c4n(-c4c(C)ccnc4C(C)C)c3=O)N2C[C@H]1C [Compound 23B-2]	6.13
C=CC(=O)N1C[C@@H]2COc3c(c4cc(F)c(-c5c(O)cccc5F)c(F)c4n(-c4c(C)ccnc4C(C)C)c3=O)N2C[C@H]1C [Compound 3A]	6.32
C=CC(=O)N1C[C@@H]2CN(C)c3c(c4cc(F)c(-c5c(O)cccc5F)c(F)c4n(-c4c(C)ccnc4C(C)C)c3=O)N2C[C@H]1C (atropisomer, axis not shown) [Compound 16B-1]	6.19
C=CC(=O)N1C[C@@H]2CN(CC(=O)O)c3c(c4cc(F)c(-c5c(O)cccc5F)c(F)c4n(-c4c(C)ccnc4C(C)C)c3=O)N2C[C@H]1C [Compound 39A-1]	5.78
C=CC(=O)N1C[C@@H]2COc3c(c4cc(F)c(-c5c(O)cccc5F)c(F)c4n(-c4c(C)ccnc4C(C)C)c3=O)N2C[C@H]1C [Compound 3A-2]	5.28
C=CC(=O)N1C[C@@H]2C(=O)N(CCN(C)C)c3c(c4cc(Cl)c(-c5c(O)cccc5F)c(F)c4n(-c4c(CC)ccnc4C(C)C)c3=O)N2C[C@H]1C [Compound 54A-1]	6.19
C=CC(=O)N1C[C@@H]2CN(CC(=O)OC)c3c(c4cc(F)c(-c5c(O)cccc5F)c(F)c4n(-c4c(C)ccnc4C(C)C)c3=O)N2C[C@H]1C [Compound 38A-1]	6.62
C=CC(=O)N1C[C@@H]2C(=O)Nc3c(c4cc(F)c(-c5c(O)cccc5F)c(F)c4n(-c4c(C)ccnc4C(C)C)c3=O)N2C[C@H]1C [Compound 22B-1]	6.67
C=CC(=O)N1C[C@@H]2CN(C)c3c(c4cc(F)c(-c5c(O)cccc5F)c(F)c4n(-c4c(C)ccnc4C(C)C)c3=O)N2C[C@H]1C (single isomer, unassigned) [Compound 16B]	5.90
C=CC(=O)N1C[C@@H]2CN(CC(=O)O)c3c(c4cc(F)c(-c5c(O)cccc5F)c(F)c4n(-c4c(C)ccnc4C(C)C)c3=O)N2C[C@H]1C [Compound 39A]	6.10
C=CC(=O)N1C[C@@H]2C(=O)N(C)c3c(c4cc(F)c(-c5c(O)cccc5F)c(F)c4n(-c4c(C)ccnc4C(C)C)c3=O)N2C[C@H]1C [Compound 21B-1]	5.65
C=CC(=O)N1C[C@@H]2C(=O)Nc3c(c4cc(F)c(-c5c(O)cccc5F)c(F)c4n(-c4c(C)ccnc4C(C)C)c3=O)N2C[C@H]1C [Compound 22B]	6.26
C=CC(=O)N1CC2COc3c(c4cc(F)c(-c5c(O)cccc5F)c(F)c4n(-c4c(C(C)C)ncnc4C(C)C)c3=O)N2CC1C (single isomer, unassigned) [Compound 19B]	6.03
C=CC(=O)N1C[C@@H]2C(=O)N(C)c3c(c4cc(Cl)c(-c5c(O)cccc5F)c(F)c4n(-c4c(C)ccnc4C(C)C)c3=O)N2C[C@H]1C [Compound 23B-1]	6.82
C=CC(=O)N1C[C@@H]2COc3c(c4cc(F)c(-c5c(C)ccc6[nH]ncc56)nc4n(-c4ccccc4C(C)C)c3=O)N2C[C@H]1C (single isomer, unassigned) [Compound 13B]	5.25
C=CC(=O)N1C[C@@H]2C(=O)N(C)c3c(c4cc(F)c(-c5c(O)cccc5F)c(F)c4n(-c4c(C)ccnc4C(C)C)c3=O)N2C[C@H]1C [Compound 21B]	6.51
C=CC(=O)N1C[C@@H]2C(=O)N(CCN(C)C)c3c(c4cc(Cl)c(-c5c(O)cccc5F)c(F)c4n(-c4c(CC)ccnc4C(C)C)c3=O)N2C[C@H]1C (atropisomer, axis not shown) [Compound 54A-2]	6.07

test system: NCI-H358 cells expressing KRAS-G12C; assay: Growth inhibition of tumor cell line expressing KRAS-G12C (Cell Titer Glo), NCI-H358; type: cell-based; conditions: NCI-H358, 72 hours
Description: as §1, §2, §3, §4

SMILES	GI50
C=CC(=O)N1C[C@@H]2C(=O)N(CCN(C)C)c3c(c4cc(Cl)c(-c5c(O)cccc5F)c(F)c4n(-c4c(C)ccnc4C(C)C)c3=O)N2C[C@H]1C (single isomer, unassigned) [Compound 26C]	0.002 µM
